Patent publication US10851116B2, “Bicyclic amines as novel JAK kinase inhibitors” (LEO Pharma A/S, priority 2017, dated 2020)

Legend:
Format in all cases: biochemical
JAK1 = JAK1 (Homo sapiens (Human), UniProt P23458); experiment: JAK kinase assay (HTRF), JAK1; conditions: catalytic domain (aa 850-1154), GST-tag, ATP at Km (7 μM)
Experimental: (§1) Human baculovirus-expressed JAK1, 2, 3 and TYK2 were purchased from Carna Biosciences, Inc. All four purified enzymes contain only the catalytic domain. JAK1 (aa 850-1154) and TYK2 (aa 871-1187) are expressed with an N-terminally fused GST-tag, and JAK2 and JAK3 with an N-terminally fused His-tag.
(§2) Inhibition of phosphorylation of a synthetic peptide was measured in an HTRF-based assay using the TK substrate-Biotin from the Cisbio HTRFKinEASE TK kit. First, 2 μl of TK solution (TK substrate-biotin in kinase buffer [1× enzymatic buffer from HTRFKinEASE TK kit, 1 mM DTT]) is added to a plate containing 1 μl prediluted compound (final assay concentration DMSO: 0.75%). Then, 5 μl kinase-ATP mix (prepared in kinase buffer) is added to the wells and the plates are incubated at RT for 20-30 min. For all four kinases a concentration of ATP that corresponded to the Km for ATP was used. The final concentrations of buffers, substrate, kinase and ATP were: JAK1: 50 mM Hepes buffer pH 7.0, 0.01% BSA, 10 mM MgCl2, 1 mM DTT, 7 μM ATP, 50 nM SEB, 1 μM TK Substrate-Biotin and 5 ng JAK1; JAK2: 50 mM Hepes buffer pH 7.0, 0.01% BSA, 5 mM MgCl2, 1 mM DTT, 4 μM ATP, 1 μM TK Substrate-Biotin and 0.1 ng JAK2; JAK3: 50 mM Hepes buffer pH 7.0, 0.01% BSA, 5 mM MgCl2, 1 mM DTT, 2 μM ATP, 1 μM TK Substrate-Biotin and 0.3 ng JAK3; TYK2: 50 mM Hepes buffer pH 7.0, 0.01% BSA, 5 mM MgCl2, 1 mM DTT, 13 μM ATP, 50 nM SEB, 1 μM TK Substrate-Biotin and 0.8 ng TYK2. Thereafter, the kinase reaction is stopped by adding 4 μl detection mix (final concentrations: 50 mM Hepes buffer pH 7.0, 0.01% BSA, 0.8 M KF, 20 mM EDTA, 42 nM Streptavidin-XL665 and 1:400 STK Ab Cryptate) and the plates are incubated overnight in the dark. The HTRF signal is read using an Envision plate reader.

JAK2 = JAK2 (Homo sapiens (Human), UniProt O60674); experiment: JAK kinase assay (HTRF), JAK2; conditions: catalytic domain, His-tag, ATP at Km (4 μM)
Experimental: as §1, §2

JAK3 = JAK3 (Homo sapiens (Human), UniProt P52333); experiment: JAK kinase assay (HTRF), JAK3; conditions: catalytic domain, His-tag, ATP at Km (2 μM)
Experimental: as §1, §2

TYK2 = TYK2 (Homo sapiens (Human), UniProt P29597); experiment: JAK kinase assay (HTRF), TYK2; conditions: catalytic domain (aa 871-1187), GST-tag, ATP at Km (13 μM)
Experimental: as §1, §2

Sequence of JAK3 (P52333 822-1111): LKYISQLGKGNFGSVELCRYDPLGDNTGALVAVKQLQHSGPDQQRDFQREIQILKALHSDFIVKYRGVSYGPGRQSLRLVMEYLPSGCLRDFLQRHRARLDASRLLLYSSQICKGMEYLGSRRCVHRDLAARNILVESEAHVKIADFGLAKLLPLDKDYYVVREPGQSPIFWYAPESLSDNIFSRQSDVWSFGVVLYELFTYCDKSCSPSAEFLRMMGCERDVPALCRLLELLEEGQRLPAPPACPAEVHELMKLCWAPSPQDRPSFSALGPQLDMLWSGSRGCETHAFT
Sequence of TYK2 (P29597 871-1187): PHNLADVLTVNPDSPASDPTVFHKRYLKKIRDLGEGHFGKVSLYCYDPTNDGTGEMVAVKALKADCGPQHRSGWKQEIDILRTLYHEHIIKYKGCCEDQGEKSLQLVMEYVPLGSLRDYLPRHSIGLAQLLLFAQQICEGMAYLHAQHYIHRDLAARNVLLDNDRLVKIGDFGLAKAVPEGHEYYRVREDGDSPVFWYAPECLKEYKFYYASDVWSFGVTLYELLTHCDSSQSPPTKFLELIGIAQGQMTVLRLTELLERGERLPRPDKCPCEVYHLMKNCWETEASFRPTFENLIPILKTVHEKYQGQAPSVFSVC
Sequence of JAK2 (O60674 849-1124): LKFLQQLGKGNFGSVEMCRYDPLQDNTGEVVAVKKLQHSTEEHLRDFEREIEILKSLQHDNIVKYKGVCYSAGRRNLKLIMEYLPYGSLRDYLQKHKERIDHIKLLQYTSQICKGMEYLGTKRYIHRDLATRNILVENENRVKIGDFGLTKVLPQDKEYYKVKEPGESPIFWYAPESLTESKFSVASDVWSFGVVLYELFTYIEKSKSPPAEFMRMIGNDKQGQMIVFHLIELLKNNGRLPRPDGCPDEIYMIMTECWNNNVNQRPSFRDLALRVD
Sequence of JAK1 (P23458 850-1154): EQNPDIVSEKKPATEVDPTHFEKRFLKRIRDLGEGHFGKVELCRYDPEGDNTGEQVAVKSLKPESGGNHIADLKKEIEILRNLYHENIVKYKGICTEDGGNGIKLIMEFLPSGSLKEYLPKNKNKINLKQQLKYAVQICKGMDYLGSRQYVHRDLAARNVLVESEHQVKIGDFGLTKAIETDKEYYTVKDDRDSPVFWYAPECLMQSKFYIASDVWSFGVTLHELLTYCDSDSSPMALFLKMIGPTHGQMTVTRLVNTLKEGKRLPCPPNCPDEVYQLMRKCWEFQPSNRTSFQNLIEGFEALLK

C[C@]12CN(c3ccc(C#N)cn3)CC[C@H]1CCN(c1ncnc3[nH]ccc13)C2 (racemic) [Example 5, 6-[(4aR*,8aS*)-8a-methyl-7-(7H-pyrrolo[2,3-d]pyrimidin-4-yl)-3,4,4a,5,6,8-hexahydro-1H-2,7-naphthyridin-2-yl]pyridine-3-carbonitrile]
EC50 (JAK1): 10 nM | EC50 (JAK2): 80 nM | EC50 (JAK3): 7 nM | EC50 (TYK2): 453 nM

C[C@]12CN(c3ccc(S(C)(=O)=O)cc3)C[C@H]1CCN(c1ncnc3[nH]ccc13)C2 (racemic) [Example 38, 4-[(3aR*,7aS*)-3a-methyl-2-(4-methylsulfonylphenyl)-1,3,4,6,7,7a-hexahydropyrrolo[3,4-c]pyridin-5-yl]-7H-pyrrolo[2,3-d]pyrimidine]
EC50 (JAK1): 7 nM | EC50 (JAK2): 32 nM | EC50 (JAK3): 71 nM | EC50 (TYK2): 335 nM

C[C@]12CN(C(=O)CC#N)C[C@H]1CCN(c1ncnc3[nH]ccc13)C2 (racemic) [Example 32, 3-[(3aS*,7aS*)-3a-methyl-5-(7H-pyrrolo[2,3-d]pyrimidin-4-yl)-1,3,4,6,7,7a-hexahydropyrrolo[3,4-c]pyridin-2-yl]-3-oxo-propanenitrile]
EC50 (JAK1): 16 nM | EC50 (JAK2): 67 nM | EC50 (JAK3): 162 nM | EC50 (TYK2): 307 nM

C[C@@]12CN(c3ncnc4[nH]ccc34)CC[C@@H]1CCN(S(N)(=O)=O)C2 (racemic) [Example 9, (4aR*,8aS*)-8a-methyl-7-(7H-pyrrolo[2,3-d]pyrimidin-4-yl)-3,4,4a,5,6,8-hexahydro-1H-2,7-naphthyridine-2-sulfonamide]
EC50 (JAK1): 39 nM | EC50 (JAK2): 58 nM | EC50 (JAK3): 8 nM | EC50 (TYK2): 241 nM

Cc1cc(C#N)cnc1N1CC[C@H]2CCN(c3ncnc4[nH]ccc34)C[C@@]2(C)C1 (racemic) [Example 11, 6-[(4aS*,8aR*)-8a-methyl-7-(7H-pyrrolo[2,3-d]pyrimidin-4-yl)-3,4,4a,5,6,8-hexahydro-1H-2,7-naphthyridin-2-yl]-5-methyl-pyridine-3-carbonitrile]
EC50 (JAK1): 86 nM | EC50 (JAK2): 380 nM | EC50 (JAK3): 85 nM | EC50 (TYK2): 976 nM

Cc1nc(N2C[C@H]3CCN(c4ncnc5[nH]ccc45)C[C@@]3(C)C2)ccc1C#N (racemic) [Example 45, 6-[(3aR*,7aS*)-3a-methyl-5-(7H-pyrrolo[2,3-d]pyrimidin-4-yl)-1,3,4,6,7,7a-hexahydropyrrolo[3,4-c]pyridin-2-yl]-2-methyl-pyridine-3-carbonitrile]
EC50 (JAK1): 30 nM | EC50 (JAK2): 103 nM | EC50 (JAK3): 120 nM | EC50 (TYK2): 1190 nM

CCC12CNCCC1CCN(c1ncnc3[nH]ccc13)C2 (centres unmarked) [Intermediate 10, 8a-ethyl-7-(7H-pyrrolo[2,3-d]pyrimidin-4-yl)-1,2,3,4,4a,5,6,8-octahydro-2,7-naphthyridine]
EC50 (JAK1): 16 nM | EC50 (JAK2): 25 nM | EC50 (JAK3): 157 nM | EC50 (TYK2): 1980 nM

C[C@]12CN(c3ncc(C#N)cn3)C[C@H]1CCN(c1ncnc3[nH]ccc13)C2 (racemic) [Example 41, 2-[(3aS*,7aS*)-3a-methyl-5-(7H-pyrrolo[2,3-d]pyrimidin-4-yl)-1,3,4,6,7,7a-hexahydropyrrolo[3,4-c]pyridin-2-yl]pyrimidine-5-carbonitrile]
EC50 (JAK1): 49 nM | EC50 (JAK2): 216 nM | EC50 (JAK3): 70 nM | EC50 (TYK2): 2040 nM

C[C@]12CN(c3ncc(Br)cc3CO)C[C@H]1CCN(c1ncnc3[nH]ccc13)C2 (racemic) [Example 37, [2-[(3aS*,7aS*)-3a-methyl-5-(7H-pyrrolo[2,3-d]pyrimidin-4-yl)-1,3,4,6,7,7a-hexahydropyrrolo[3,4-c]pyridin-2-yl]-5-bromo-3-pyridyl]methanol]
EC50 (JAK1): 12 nM | EC50 (JAK2): 48 nM | EC50 (JAK3): 38 nM | EC50 (TYK2): 611 nM

C[C@]12CN(c3cnc(C#N)cn3)CC[C@H]1CCN(c1ncnc3[nH]ccc13)C2 (racemic) [Example 4, 5-[(4aR*,8aS*)-8a-methyl-7-(7H-pyrrolo[2,3-d]pyrimidin-4-yl)-3,4,4a,5,6,8-hexahydro-1H-2,7-naphthyridin-2-yl]pyrazine-2-carbonitrile]
EC50 (JAK1): 4 nM | EC50 (JAK2): 25 nM | EC50 (JAK3): 4 nM | EC50 (TYK2): 148 nM

C[C@]12CN(c3ccc(S(C)(=O)=O)cn3)C[C@H]1CCN(c1ncnc3[nH]ccc13)C2 (racemic) [Example 35]
EC50 (JAK1): 13 nM | EC50 (JAK2): 131 nM | EC50 (JAK3): 95 nM | EC50 (TYK2): 2440 nM

CC[C@]12CN(c3nc(C#N)cs3)CC[C@H]1CCN(c1ncnc3[nH]ccc13)C2 (relative stereo) [Example 25, 2-[(4aR*,8aS*)-8a-ethyl-7-(7H-pyrrolo[2,3-d]pyrimidin-4-yl)-3,4,4a,5,6,8-hexahydro-1H-2,7-naphthyridin-2-yl]thiazole-4-carbonitrile]
EC50 (JAK1): 46 nM | EC50 (JAK2): 139 nM | EC50 (JAK3): 29 nM | EC50 (TYK2): 1110 nM

C[C@]12CN(c3ncccc3CO)C[C@H]1CCN(c1ncnc3[nH]ccc13)C2 (racemic) [Example 36, [2-[(3aS*,7aS*)-3a-methyl-5-(7H-pyrrolo[2,3-d]pyrimidin-4-yl)-1,3,4,6,7,7a-hexahydropyrrolo[3,4-c]pyridin-2-yl]-3-pyridyl]methanol]
EC50 (JAK1): 69 nM | EC50 (JAK2): 120 nM | EC50 (JAK3): 235 nM | EC50 (TYK2): 1110 nM

CC[C@@]12CN(C#N)CC[C@@H]1CCN(c1ncnc3[nH]ccc13)C2 [Example 21, (4aS,8aR)-8a-ethyl-7-(7H-pyrrolo[2,3-d]pyrimidin-4-yl)-3,4,4a,5,6,8-hexahydro-1H-2,7-naphthyridine-2-carbonitrile]
EC50 (JAK1): 80 nM | EC50 (JAK2): 187 nM | EC50 (JAK3): 578 nM | EC50 (TYK2): 988 nM

C[C@@]12CN(C#N)C[C@@H]1CCN(c1ncnc3[nH]ccc13)C2 [Example 28, (3aR,7aR)-3a-methyl-5-(7H-pyrrolo[2,3-d]pyrimidin-4-yl)-1,3,4,6,7,7a-hexahydropyrrolo[3,4-c]pyridine-2-carbonitrile]
EC50 (JAK1): 240 nM | EC50 (JAK2): 827 nM | EC50 (JAK3): 2180 nM | EC50 (TYK2): 2470 nM

C[C@@]12CN(c3ncnc4[nH]ccc34)CC[C@@H]1CN(S(C)(=O)=O)C2 (racemic) [Example 26, 4-[(3aS*,7aS*)-3a-methyl-2-methylsulfonyl-1,3,4,6,7,7a-hexahydropyrrolo[3,4-c]pyridin-5-yl]-7H-pyrrolo[2,3-d]pyrimidine]
EC50 (JAK1): 93 nM | EC50 (JAK2): 154 nM | EC50 (JAK3): 243 nM | EC50 (TYK2): 898 nM

C[C@@]12CN(c3ncnc4[nH]ccc34)CC[C@@H]1CCN(S(C)(=O)=O)C2 (racemic) [Example 13, (4aR*,8aS*)-8a-methyl-2-methylsulfonyl-7-(7H-pyrrolo[2,3-d]pyrimidin-4-yl)-3,4,4a,5,6,8-hexahydro-1H-2,7-naphthyridine]
EC50 (JAK1): 72 nM | EC50 (JAK2): 90 nM | EC50 (JAK3): 75 nM | EC50 (TYK2): 326 nM

CC[C@]12CN(C(C)=O)CC[C@H]1CCN(c1ncnc3[nH]ccc13)C2 (relative stereo) [Example 15, 1-[(4aR*,8aS*)-8a-ethyl-7-(7H-pyrrolo[2,3-d]pyrimidin-4-yl)-3,4,4a,5,6,8-hexahydro-1H-2,7-naphthyridin-2-yl]ethanone]
EC50 (JAK1): 121 nM | EC50 (JAK2): 453 nM | EC50 (JAK3): 69 nM | EC50 (TYK2): 1040 nM

C[C@]12CN(c3ccncn3)C[C@H]1CCN(c1ncnc3[nH]ccc13)C2 (racemic) [Example 39, 4-[(3aR*,7aS*)-3a-methyl-2-pyrimidin-4-yl-1,3,4,6,7,7a-hexahydropyrrolo[3,4-c]pyridin-5-yl]-7H-pyrrolo[2,3-d]pyrimidine]
EC50 (JAK1): 18 nM | EC50 (JAK2): 72 nM | EC50 (JAK3): 199 nM | EC50 (TYK2): 775 nM

C[C@]12CN(c3ccc(C#N)nn3)CC[C@H]1CCN(c1ncnc3[nH]ccc13)C2 (racemic) [Example 6, 6-[(4aR*,8aS*)-8a-methyl-7-(7H-pyrrolo[2,3-d]pyrimidin-4-yl)-3,4,4a,5,6,8-hexahydro-1H-2,7-naphthyridin-2-yl]pyridazine-3-carbonitrile]
EC50 (JAK1): 17 nM | EC50 (JAK2): 64 nM | EC50 (JAK3): 9 nM | EC50 (TYK2): 634 nM
